# Measured values: ChEMBL document CHEMBL5303573, “Mapping human microbiome drug metabolism by gut bacteria and their genes” (Nature, 2019)
# Tests used:
# [1] = The drug is tested on Bifidobacterium breve strain: DSM20213 for biotransformation. The drug concentrations were measured before and after a 12-h incubation by liquid-chromatography-coupled mass spectrometry (LC–MS); conditions: 2 µM
# [2] = The drug is tested on Eggerthella lenta strain: ATCC25559 for biotransformation. The drug concentrations were measured before and after a 12-h incubation by liquid-chromatography-coupled mass spectrometry (LC–MS); conditions: 2 µM
# [3] = The drug is tested on Bacteroides coprophilus strain: DSM18228 for biotransformation. The drug concentrations were measured before and after a 12-h incubation by liquid-chromatography-coupled mass spectrometry (LC–MS); conditions: 2 µM
# [4] = The drug is tested on Bacteroides fragilis strain: HMW615 for biotransformation. The drug concentrations were measured before and after a 12-h incubation by liquid-chromatography-coupled mass spectrometry (LC–MS); conditions: 2 µM
# [5] = The drug is tested on Bacteroides ovatus strain: ATCC8483 for biotransformation. The drug concentrations were measured before and after a 12-h incubation by liquid-chromatography-coupled mass spectrometry (LC–MS); conditions: 2 µM
# [6] = The drug is tested on Bacteroides uniformis strain: ATCC8492 for biotransformation. The drug concentrations were measured before and after a 12-h incubation by liquid-chromatography-coupled mass spectrometry (LC–MS); conditions: 2 µM
# [7] = The drug is tested on Bacteroides vulgatus strain: ATCC8482 for biotransformation. The drug concentrations were measured before and after a 12-h incubation by liquid-chromatography-coupled mass spectrometry (LC–MS); conditions: phocaeicola vulgatus, 2 µM
# [8] = The drug is tested on Bacteroides xylanisolvens strain: DSM18836 for biotransformation. The drug concentrations were measured before and after a 12-h incubation by liquid-chromatography-coupled mass spectrometry (LC–MS); conditions: 2 µM
# [9] = The drug is tested on Clostridium asparagiforme strain: DSM15981 for biotransformation. The drug concentrations were measured before and after a 12-h incubation by liquid-chromatography-coupled mass spectrometry (LC–MS); format: ADME; parameters: dose 2 uM, timepoint 0 vs 12 hours; conditions: enterocloster asparagiformis, 2 µM
# [10] = The drug is tested on Dorea formicigenerans strain: ATCC27755 for biotransformation. The drug concentrations were measured before and after a 12-h incubation by liquid-chromatography-coupled mass spectrometry (LC–MS); conditions: 2 µM
# [11] = The drug is tested on Eubacterium hallii strain: DSM3353 for biotransformation. The drug concentrations were measured before and after a 12-h incubation by liquid-chromatography-coupled mass spectrometry (LC–MS); conditions: anaerobutyricum hallii, 2 µM
# [12] = The drug is tested on Ruminococcus gnavus strain: ATCC29149 for biotransformation. The drug concentrations were measured before and after a 12-h incubation by liquid-chromatography-coupled mass spectrometry (LC–MS); conditions: mediterraneibacter gnavus, 2 µM
# [13] = The drug is tested on Ruminococcus lactaris strain: ATCC29176 for biotransformation. The drug concentrations were measured before and after a 12-h incubation by liquid-chromatography-coupled mass spectrometry (LC–MS); conditions: 2 µM
# [14] = The drug is tested on Providencia rettgeri strain: DSM1131 for biotransformation. The drug concentrations were measured before and after a 12-h incubation by liquid-chromatography-coupled mass spectrometry (LC–MS); format: ADME; parameters: dose 2 uM, timepoint 0 vs 12 hours; conditions: 2 µM
# [15] = bifidobacterium adolescentis, 12 h, 2 µM
# Description: The drug is tested on Bifidobacterium adolescentis strain: ATCC 15703 for biotransformation. The drug concentrations were measured before and after a 12-h incubation by liquid-chromatography-coupled mass spectrometry (LC–MS)
# [16] = bacteroides intestinalis, 12 h, 2 µM
# Description: The drug is tested on Bacteroides intestinalis strain: DSM17393 for biotransformation. The drug concentrations were measured before and after a 12-h incubation by liquid-chromatography-coupled mass spectrometry (LC–MS)
# [17] = bacteroides thetaiotaomicron, 12 h, 2 µM
# Description: The drug is tested on Bacteroides thetaiotaomicron strain: VPI-5482 for biotransformation. The drug concentrations were measured before and after a 12-h incubation by liquid-chromatography-coupled mass spectrometry (LC–MS)
# [18] = anaerostipes sp., 12 h, 2 µM
# Description: The drug is tested on Anaerostipes sp. strain: fecal isolate for biotransformation. The drug concentrations were measured before and after a 12-h incubation by liquid-chromatography-coupled mass spectrometry (LC–MS)
# [19] = The drug is tested on Alistipes indistinctus strain: DSM22520 for biotransformation. The drug concentrations were measured before and after a 12-h incubation by liquid-chromatography-coupled mass spectrometry (LC–MS); conditions: 2 µM
# [20] = The drug is tested on Bacteroides cellulosilyticus strain: DSM14838 for biotransformation. The drug concentrations were measured before and after a 12-h incubation by liquid-chromatography-coupled mass spectrometry (LC–MS); conditions: 2 µM
Structure (SMILES),Bacterial Biotransformation [1],Bacterial Biotransformation [2],Bacterial Biotransformation [3],Bacterial Biotransformation [4],Bacterial Biotransformation [5],Bacterial Biotransformation [6],Bacterial Biotransformation [7],Bacterial Biotransformation [8],Bacterial Biotransformation [9],Bacterial Biotransformation [10],Bacterial Biotransformation [11],Bacterial Biotransformation [12],Bacterial Biotransformation [13],Bacterial Biotransformation [14],Bacterial Biotransformation [15],Bacterial Biotransformation [16],Bacterial Biotransformation [17],Bacterial Biotransformation [18],Bacterial Biotransformation [19],Bacterial Biotransformation [20]
CN(C)C(=O)Oc1cc(OC(=O)N(C)C)cc(C(O)CNC(C)(C)C)c1 (configuration not stated) [BAMBUTEROL],Compound NOT metabolized,Compound NOT metabolized,Compound NOT metabolized,Compound NOT metabolized,Compound NOT metabolized,Compound NOT metabolized,Compound NOT metabolized,Compound NOT metabolized,Compound NOT metabolized,Compound NOT metabolized,Compound NOT metabolized,Compound NOT metabolized,Compound NOT metabolized,Compound NOT metabolized,Compound NOT metabolized,Compound NOT metabolized,Compound NOT metabolized,Compound NOT metabolized,–,–
C=CCc1ccccc1OCC(O)CNC(C)C (configuration not stated) [ALPRENOLOL],Compound NOT metabolized,Compound NOT metabolized,Compound NOT metabolized,–,Compound NOT metabolized,Compound NOT metabolized,Compound NOT metabolized,Compound NOT metabolized,Compound NOT metabolized,Compound NOT metabolized,Compound NOT metabolized,Compound NOT metabolized,Compound NOT metabolized,Compound NOT metabolized,Compound NOT metabolized,Compound NOT metabolized,Compound NOT metabolized,Compound NOT metabolized,Compound NOT metabolized,–
CN1CCN(CC/C=C2/c3ccccc3Sc3ccc(S(=O)(=O)N(C)C)cc32)CC1 [THIOTHIXENE],Compound metabolized,Compound NOT metabolized,Compound NOT metabolized,Compound NOT metabolized,Compound NOT metabolized,Compound metabolized,Compound metabolized,Compound metabolized,–,Compound NOT metabolized,Compound NOT metabolized,Compound NOT metabolized,Compound metabolized,–,Compound NOT metabolized,Compound NOT metabolized,Compound NOT metabolized,Compound metabolized,Compound NOT metabolized,Compound metabolized
CC(C)(C)NCC(O)c1cc(Cl)c(N)c(Cl)c1 (configuration not stated) [CLENBUTEROL],Compound NOT metabolized,Compound NOT metabolized,Compound NOT metabolized,–,Compound NOT metabolized,Compound NOT metabolized,Compound NOT metabolized,Compound NOT metabolized,–,Compound NOT metabolized,Compound NOT metabolized,Compound NOT metabolized,Compound NOT metabolized,Compound NOT metabolized,Compound NOT metabolized,Compound NOT metabolized,Compound NOT metabolized,Compound NOT metabolized,Compound NOT metabolized,Compound NOT metabolized
CC(=O)SCC(Cc1ccccc1)C(=O)NCC(=O)OCc1ccccc1 (configuration not stated) [RACECADOTRIL],Compound metabolized,Compound NOT metabolized,Compound metabolized,Compound metabolized,Compound metabolized,Compound metabolized,Compound metabolized,Compound metabolized,–,–,Compound NOT metabolized,Compound NOT metabolized,Compound metabolized,Compound NOT metabolized,Compound metabolized,Compound metabolized,Compound metabolized,Compound NOT metabolized,Compound metabolized,Compound metabolized
O=P1(N(CCCl)CCCl)NCCCO1 (configuration not stated) [CYCLOPHOSPHAMIDE ANHYDROUS],Compound NOT metabolized,Compound NOT metabolized,Compound NOT metabolized,Compound metabolized,Compound NOT metabolized,Compound NOT metabolized,Compound NOT metabolized,Compound NOT metabolized,–,–,–,Compound NOT metabolized,–,–,Compound NOT metabolized,Compound NOT metabolized,Compound NOT metabolized,–,Compound metabolized,–
CC(C)NCC(O)COc1ccc(CCOCC2CC2)cc1 (configuration not stated) [BETAXOLOL],Compound NOT metabolized,Compound NOT metabolized,Compound NOT metabolized,Compound NOT metabolized,Compound NOT metabolized,Compound NOT metabolized,–,–,Compound NOT metabolized,Compound NOT metabolized,Compound NOT metabolized,Compound NOT metabolized,Compound NOT metabolized,Compound NOT metabolized,Compound NOT metabolized,Compound NOT metabolized,Compound NOT metabolized,Compound NOT metabolized,Compound NOT metabolized,–
Br.CN(C)CCCC1(c2ccc(F)cc2)OCc2cc(C#N)ccc21 (configuration not stated) [CITALOPRAM HYDROBROMIDE],Compound NOT metabolized,Compound NOT metabolized,Compound NOT metabolized,Compound NOT metabolized,Compound NOT metabolized,–,Compound NOT metabolized,–,Compound NOT metabolized,Compound NOT metabolized,Compound NOT metabolized,Compound NOT metabolized,Compound NOT metabolized,Compound NOT metabolized,Compound NOT metabolized,Compound NOT metabolized,Compound NOT metabolized,Compound NOT metabolized,Compound NOT metabolized,–
